Experiments:
[1] = test system: HuT78 (T-cell lymphoma) cells; assay: MTT antiproliferative assay, HuT78; assay type: cell-based, human; conditions: for IC50: Homo sapiens, HuT78, 72 h, 72 h, MTT, mean ± SD of three independent experiments; for SI (MDCK) HuT78: SI = IC50 MDCK1 / IC50 HuT78; for SI (BJ) HuT78: SI = IC50 BJ / IC50 HuT78
Protocol: (§1) The growth inhibition activity was assessed according to the slightly modified procedure performed at the National Cancer Institute, Developmental Therapeutics Program.
(§2) Examined compounds were dissolved in DMSO (1 × 10^−2 M). The experiments were carried out on seven human tumor cell lines and two normal cell lines. The following cell lines were used: HeLa (human cervical adenocarcinoma; purchased from ATCC), CaCo-2 (human colorectal adenocarcinoma), HuT78 (T-cell lymphoma), THP-1 (acute monocytic leukemia), SW620 (colorectal adenocarcinoma, metastatic), MDA-MB-231 (human breast adenocarcinoma), HL60 (promyelocytic leukemia cell line), foreskin fibroblast cells (BJ) and MDCK1 (Madine–Darby canine kidney fibroblast like cells). MDCK1 cells were used between 24 and 26 passages.
(§3) Adherent cells were cultured in the Dulbecco’s modified Eagle medium—DMEM (Gibco, EU) supplemented with 10 % heat-inactivated fetal bovine serum (FBS, Gibco, EU), 2 mM glutamine, and 100 U/0.1 mg penicillin/streptomycin. Cells on suspension were cultured in RPMI 1640 (Gibco, EU) medium supplemented with 10 % FBS (Gibco, EU), 2 mM glutamine, 1 mM sodium pyruvate, 10 mM HEPES. Cells were grown in humidified atmosphere under the conditions of 37 °C/5% of CO2 gas in the CO2 incubator (IGO 150 CELLlife^TM, JOUAN, Thermo Fisher Scientific, Waltham, MA, USA). A erythrosin B (Sigma-Aldrich, St. Louis, MO, USA) dye exclusion method was used to assess cell viability before plating.
(§4) Adherent cells (HeLa, CaCo-2, MCF-7 and MDCK-1) were plated in 96-well flat bottom plates (Greiner, Frickenhausen, Austria) at a concentration of 2 × 10^4 cells/mL. Suspension cells (THP-1 and HuT78) were plated in 96-well microtiter plates (Sarstead, Newton, USA) at a concentration of 1 × 10^5 cells/mL. Twenty-four hours later, cells were treated with test agents in […] 10-fold dilutions ([…] to 10^−4 M) and incubated for further 72 h. Working dilutions were freshly prepared on the day of testing. The solvent was also tested for eventual inhibitory activity by adjusting its concentration to be the same as in working concentrations. After 72 h of incubation, the cell growth rate was evaluated by performing the MTT assay, which detects dehydrogenase activity in viable cells. For this purpose, upon completion of the incubation period, growth medium was discarded and 50 μL of MTT was added to each well at a concentration of 5 mg/mL. After four hours of incubation at 37 °C, water insoluble MTT-formazan crystals were dissolved in 150 μL of dimethyl-sulfoxide (DMSO) for adherent cells, and in 10 % SDS with 0.01 M/L HCl for cells grown in suspension. The absorbance (OD, optical density) was measured on a microplate reader (iMark, BIO RAD, Hercules, CA, USA) at 595 nm.
(§5) Percent of life cells was calculated as follows: % = OD (sample)–OD (background)/OD (control)–OD (background) × 100.
(§6) Optical density (OD) of background for adherent cells is the OD of MTT solution and DMSO; OD (background) for suspension cells is OD of the culture medium with MTT and 10% SDS with 0.01 M/L HCl; OD (control) is the OD of the cells growth without tested compounds.
(§7) Calculation of GI50 value curves and QC analysis is performed by using the Excel tools and GraphPadPrism software (La Jolla, CA), v. 5.03. Briefly, individual concentration effect curves are generated by plotting the logarithm of the concentration of tested compounds(X) vs. corresponding percent inhibition values (Y) using least squares fit. The best fit GI50 values are calculated using Log (inhibitor) versus normalized response—Variable slope equation, where Y Ľ 100/(1 ţ 10 ((LogIC50 _ X) * HillSlope)). QC criteria parameters (Z0, S:B, R2, HillSlope) were checked for every GI50 curve.

[2] = test system: CaCo-2 (colon adenocarcinoma) cells; assay: MTT antiproliferative assay, CaCo-2; assay type: cell-based, human; conditions: Homo sapiens, Caco-2; 72 h, MTT, mean ± SD of three independent experiments
Protocol: as §1, §2, §3, §4, §5, §6
as §7, with “The best fit GI50 values are calculated using Log (inhibitor) versus normalized response—Variable slope equation, where Y Ľ 100/(1 ţ 10 ((LogIC50 _ X) * HillSlope)).” left out

human fibroblasts (BJ) = assay: MTT antiproliferative assay, normal BJ fibroblasts; assay type: cell-based; conditions: Homo sapiens, Fibroblast, 72 h, MTT, mean ± SD of three independent experiments; normal cells
Protocol: as §1, §2, §3, §4, §5, §6, §7

[3] = test system: HeLa (cervical adenocarcinoma) cells; assay: MTT antiproliferative assay, HeLa; assay type: cell-based; conditions: Homo sapiens, 72 h, mean ± SD of three independent experiments
Protocol: as §1, §2, §3, §4, §5, §6, §7

[4] = test system: MDCK1 (Madin–Darby canine kidney) cells; assay: MTT antiproliferative assay, non-tumor MDCK1 cells; assay type: cell-based; conditions: Canis lupus familiaris, MDCK1, 72 h, mean ± SD of three independent experiments, normal cells
Protocol: as §1, §2, §3, §4, §5, §6, §7

SMILES	IC50 [1]	IC50 [2]	IC50 (human fibroblasts (BJ))	IC50 [3]	IC50 [4]	SI (MDCK) HuT78 [1]	SI (BJ) HuT78 [1]	antiproliferative effect on HuT78 cells (in words) [1]
COc1cc(-c2nc3ccc(C4=NCCN4)cc3[nH]2)ccc1OCc1c[nH]nn1 [44c]	> 100 µM	> 100 µM	> 100 µM	> 100 µM	> 100 µM	–	–	–
Fc1cc(-c2nc3ccc(C4=NCCN4)cc3[nH]2)ccc1OCc1c[nH]nn1 [44b]	65.6 ± 17.3 µM	> 100 µM	45.1 ± 20.9 µM	> 100 µM	> 100 µM	1.52	–	–
c1cc(-c2nc3ccc(C4=NCCCN4)cc3s2)ccc1OCc1c[nH]nn1 [40a]	> 100 µM	> 100 µM	> 100 µM	> 100 µM	59.4 ± 18.8 µM	–	–	–
O=C(COc1ccc(-c2nc3ccc(C4=NCCN4)cc3[nH]2)cc1F)N1CCOCC1 [47b]	> 100 µM	> 100 µM	> 100 µM	> 100 µM	> 100 µM	–	–	–
CCN(CC)CCOc1ccc(-c2nc3ccc(C4=NCCN4)cc3[nH]2)cc1F [49b]	> 100 µM	> 100 µM	64.8 ± 9.2 µM	> 100 µM	82.9 ± 6.6 µM	–	–	–
CCN(CC)CCOc1ccc(-c2nc3ccc(C4=NCCN4)cc3[nH]2)cc1OC [49c]	> 100 µM	> 100 µM	> 100 µM	> 100 µM	> 100 µM	–	–	–
CCN(CC)CCOc1ccc(-c2nc3ccc(C4=NCCN4)cc3[nH]2)cc1 [49a]	> 100 µM	> 100 µM	80.4 ± 9.9 µM	> 100 µM	> 100 µM	–	–	–
COc1cc(-c2nc3ccc(C4=NCCCN4)cc3s2)ccc1OCc1c[nH]nn1 [40c]	> 100 µM	> 100 µM	> 100 µM	> 100 µM	> 100 µM	–	–	–
O=C(COc1ccc(-c2nc3ccc(C4=NCCCN4)cc3s2)cc1)c1ccccc1 [38a]	16.2 ± 5.5 µM	25.4 ± 3.5 µM	22.6 ± 4.6 µM	19.7 ± 3.1 µM	27.1 ± 3.4 µM	1.67	1.39	–
COc1cc(-c2nc3ccc(C4=NCCCN4)cc3s2)ccc1OCc1cn(Cc2ccccc2)nn1 [41c]	> 100 µM	> 100 µM	> 100 µM	> 100 µM	> 100 µM	–	–	–
COc1cc(-c2nc3ccc(C4=NCCN4)cc3[nH]2)ccc1OCc1ccccn1 [43c]	17.7 ± 6.1 µM	> 100 µM	30.9 ± 8.7 µM	> 100 µM	63.4 ± 8.9 µM	3.58	1.75	–
Fc1cc(-c2nc3ccc(C4=NCCCN4)cc3s2)ccc1OCc1c[nH]nn1 [40b]	37.3 ± 12.8 µM	> 100 µM	> 100 µM	> 100 µM	> 100 µM	2.68	2.68	–
O=c1[nH]cc(F)c(=O)[nH]1 [5-FU, 5-Fluorouracil, reference compound]	> 100 µM	–	74 ± 3.1 µM	8.2 ± 1.9 µM	55 ± 8.7 µM	–	–	did not exhibit antiproliferative effect

Source: publication PMC9785280, “Synthesis, Antiproliferative Evaluation and QSAR Analysis of Novel Halogen- and Amidino-Substituted Benzothiazoles and Benzimidazoles” (International Journal of Molecular Sciences, 2022)
